This is an account of results in the NIST ThermoML archive (doi:10.1016/j.fluid.2007.03.013).

Numbers after ± are expanded uncertainties.

A short description of this data set: refractive index (Na D-line) (dimensionless). The conditions noted are these: 293.1 K; 101.33 kPa; Liquid; Standard Abbe refractometry.

For `O=CN1CCOCC1` [N-formylmorpholine], the refractive index is 1.484 ± 0.0007.
For the compound `CC1CCCCC1` [methylcyclohexane], the refractive index was found to be 1.423 ± 0.0007.

What is called refractive index is a measure of how strongly the sample bends light.
